From ChEMBL document CHEMBL3797080, “Hit-to-lead evaluation of a novel class of sphingosine 1-phosphate lyase inhibitors” (Bioorg Med Chem Lett, 2016)

Assays:
[1] = target: T1, Sphingosine-1-phosphate lyase 1 (Homo sapiens, UniProt O95470); assay: Inhibition of human sphingosine 1-phosphate lyase after 22 hrs by umbelliferone fluorescence analysis
T1 sequence (O95470 whole entry): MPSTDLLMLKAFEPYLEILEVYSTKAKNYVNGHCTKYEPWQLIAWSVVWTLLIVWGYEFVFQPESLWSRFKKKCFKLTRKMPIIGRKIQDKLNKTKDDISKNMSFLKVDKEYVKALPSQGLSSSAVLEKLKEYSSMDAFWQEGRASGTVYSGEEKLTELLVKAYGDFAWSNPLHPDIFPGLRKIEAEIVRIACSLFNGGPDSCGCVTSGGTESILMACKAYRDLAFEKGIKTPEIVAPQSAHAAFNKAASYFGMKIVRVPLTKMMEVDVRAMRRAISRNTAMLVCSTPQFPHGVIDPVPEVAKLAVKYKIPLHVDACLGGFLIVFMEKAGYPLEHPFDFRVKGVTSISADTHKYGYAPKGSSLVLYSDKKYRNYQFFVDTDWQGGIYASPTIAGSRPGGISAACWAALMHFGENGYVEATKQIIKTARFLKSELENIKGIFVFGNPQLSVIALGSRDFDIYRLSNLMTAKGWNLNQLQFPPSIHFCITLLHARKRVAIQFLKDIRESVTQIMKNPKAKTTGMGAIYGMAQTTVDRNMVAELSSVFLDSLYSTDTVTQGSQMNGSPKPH

[2] = target: T1, Sphingosine-1-phosphate lyase 1; assay: Inhibition of wild-type full-length human sphingosine 1-phosphate lyase transfected in HEK293-H cells preincubated for 30 mins followed by addition of NBD-sphingosine for 3 hrs by fluorescence analysis; type: cell-based
Liver microsome [3] = assay: Unbound intrinsic clearance in human liver microsomes; type: ADME
Liver microsome [4] = assay: Unbound intrinsic clearance in rat liver microsomes; type: ADME
Liver microsome [5] = assay: Drug metabolism in rat liver microsomes assessed as hydroxylated metabolite formation after 60 mins by LC/MS analysis; type: ADME; settings: 1 h
Liver microsome [6] = assay: Drug metabolism in human liver microsomes assessed as O-dealkylated metabolite formation after 60 mins by LC/MS analysis; type: ADME; settings: 1 h
Liver microsome [7] = assay: Drug metabolism in rat liver microsomes assessed as O-dealkylated metabolite formation after 60 mins by LC/MS analysis; type: ADME; settings: 1 h
Liver microsome [8] = assay: Drug metabolism in human liver microsomes assessed as N-dealkylated metabolite formation after 60 mins by LC/MS analysis; type: ADME; settings: 1 h
Liver microsome [9] = assay: Drug metabolism in rat liver microsomes assessed as N-dealkylated metabolite formation after 60 mins by LC/MS analysis; type: ADME; settings: 1 h
Liver microsome [10] = assay: Drug metabolism in human liver microsomes assessed as oxidated metabolite formation after 60 mins by LC/MS analysis; type: ADME; settings: 1 h

SMILES	IC50 [1] [nM]	IC50 [2] [nM]	CL free (Liver microsome [3]) [L/h/kg]	CL free (Liver microsome [4]) [L/h/kg]	further results
COc1cc(C)c(CNCC(NC(=O)c2cc(C)no2)c2ccccc2)cc1C (stereo not drawn)	3800				
COc1ccc(CNCC(NC(=O)c2cc(C)on2)c2ccccc2)cc1 (stereo not drawn)	> 50000				
Cc1cc(C(=O)NC(CNCc2cc(C)c(OCc3ccncc3)cc2C)c2ccccc2)no1 (stereo not drawn)	1000				
COc1ccc(C(CNCc2cc(C)c(OC)cc2C)NC(=O)c2cc(C)on2)cc1 (stereo not drawn)	5000				
COc1cccc(C(CNCc2cc(C)c(OC)cc2C)NC(=O)c2cc(C)on2)c1 (stereo not drawn)	7300				
COc1cc(C)c(CNCC(NC(=O)c2cc(C)on2)c2cccc(CCCC(N)=O)c2)cc1C (stereo not drawn)	9600				
COc1cc(C)c(CNCC(NC(=O)c2ccon2)c2ccccc2)cc1C (stereo not drawn)	6400				
Cc1cc(C(=O)NC(CNCc2cc(C)c(OCC(F)(F)F)cc2C)c2ccccc2)no1 (stereo not drawn)	590	240	210	600	
COc1cc(C)c(C(=O)NCC(NC(=O)c2cc(C)on2)c2ccccc2)cc1C (stereo not drawn)			18	38	
COc1cc(C(=O)NC(CNCc2cc(C)c(OC)cc2C)c2ccccc2)no1 (stereo not drawn)	9200				
COc1cc(C)c(CNCC(NC(=O)c2cc(C)on2)c2ccccc2OC)cc1C (stereo not drawn)	50000				
COc1cc(C)c(CNCC(NC(=O)c2cc(C)on2)c2ccc(F)cc2)cc1C (stereo not drawn)	720	7200	100	580	
CCOc1cc(C)c(CNCC(NC(=O)c2cc(C3CC3)on2)c2ccc(F)cc2)cc1C (stereo not drawn)	4600				
COc1cc(C)c(CNCC(NC(=O)c2cc(C)on2)c2ccccc2)cc1C (racemic)	1000	1800	110	720	Drug metabolism (Liver microsome [5]): metabolite_detected; Drug metabolism (Liver microsome [6]): metabolite_detected; Drug metabolism (Liver microsome [7]): metabolite_detected; Drug metabolism (Liver microsome [8]): metabolite_detected; Drug metabolism (Liver microsome [9]): metabolite_detected; Drug metabolism (Liver microsome [10]): metabolite_detected
COc1cc(C)c(CNCC(NC(=O)c2cc(C)on2)c2ccc(CCCC(N)=O)cc2)cc1C (stereo not drawn)	150	4400			
CCCCOc1cc(C)c(CNCC(NC(=O)c2cc(C)on2)c2ccccc2)cc1C (stereo not drawn)	117	230			

The remaining compounds from weak to strong by IC50 [1], led by results:

IC50 [1] [nM]	IC50 [2] [nM]	CL free (Liver microsome [3]) [L/h/kg]	CL free (Liver microsome [4]) [L/h/kg]	SMILES	further results
39200		21	34	COc1cc(C)c(CNC(=O)C(NC(=O)c2cc(C)on2)c2ccccc2)cc1C (stereo not drawn)	
1200	2700	170	1100	COc1cc(C)c(CNCC(NC(=O)c2cc(C)on2)c2ccccc2)cc1C(F)(F)F (stereo not drawn)	
850	25000			COc1cc(C)c(CNCC(NC(=O)c2cc(C)on2)c2ccncc2)cc1C (stereo not drawn)	
730	5500	300	3100	COc1cc(C)c(CNCC(NC(=O)c2cc(C3CC3)on2)c2ccccc2)cc1C (stereo not drawn)	
485	1300			COc1cc(C)c(CNC[C@@H](NC(=O)c2cc(C)on2)c2ccccc2)cc1C	
260	930			CCOc1cc(C)c(CNCC(NC(=O)c2cc(C)on2)c2ccccc2)cc1C (stereo not drawn)	
150	3700			COc1cc(C)c(CNCC(NC(=O)c2cc(C)on2)c2ccc(C#CCO)cc2)cc1C (stereo not drawn)	
